Read-outs that look alike come from different tables or passages of the source.
What was measured:
HIV [1] = experiment: AZT/acyclovir combination, in vitro efficacy (protection) vs. HIV; assay type: cell-based
Experimental: Using a method analogous to that described in Example 79 of EP21758A, combinations of AZT and acyclovir (ACV) were tested for in vitro efficacy vs. HIV.

[2] = tested on: Friend Lenkemia Virus (FLV); experiment: Anti-Friend Leukemia Virus plaque inhibition in FG-10 cells; assay type: cell-based
Experimental: FG-10 cells were seeded on a plate one day before they were infected with FLV. One hour after infecting, known concentrations of the test compounds or combinations were added. The plates were incubated for 3 days, the media replaced with fresh McCoy's 5A media and incubated another 3 days. […]

HIV [3] = experiment: Reverse transcriptase activity in supernatant of HIV-infected PBMC, with multiple drug effect analysis; assay type: cell-based; settings: for mean reverse transcriptase values: Experiment 2, Day 10
HIV [4] = experiment: Virus yield of HIV-infected PBMC cultures; assay type: cell-based; settings: Experiment 3, Day 13; AZT .04 µM alone
HIV [5] = experiment: HIV p24 antigen by radioimmunoassay in HIV-infected PBMC cultures; assay type: cell-based; settings: Experiment 4, Day 14
E. coli CN314 = experiment: MIC determination of each drug alone; assay type: cell-based; settings: Escherichia coli
Experimental: Microtiter dilutions were prepared using Wellcotest broth. Prior to synergy testing, MIC determinations were made for each compound individually against the test organism (E. coli CN314).

[6] = tested on: vaccinia, HSVI and varicella zoster virus (VZV); settings: De Clerq et al, Biochem.Pharm. (1980) 29, 1849-1851; including DNA viruses; cited from earlier work
[7] = test drugs alone, E. coli CN314, read-out: MIC

For `Nc1nc2c(ncn2COCCO)c(=O)[nH]1` [ACV, 9-(2-hydroxyethoxymethyl) guanine, reference compound], the protection (HIV [1]; ACV alone, 16 µg/ml (the highest tested)) was “less than 30%” and the “potentiates the antiviral activity of AZT” value (HIV [1]; ACV combined with AZT vs. HIV) was “about 3 fold”.

With `Cc1cn([C@H]2C[C@H](N=[N+]=[N-])[C@@H](CO)O2)c(=O)[nH]c1=O` [AZT] the EC50 ([2]; read-out: Azidothymidine ED50) was 5 nM, the protection (HIV [1]; AZT alone at 8µM) was 100% and the “AZT” value (HIV [1]; Table 3: AZT concentration with ACV 0 µg/ml, effect level not stated (presumably full protection)) was 8 µM. The “mean reverse transcriptase values” (HIV [3]; AZT 0.01 µM alone) was 159 cpm/10^6 cells x 10^3, the “mean reverse transcriptase values” (HIV [3]; AZT 0.02 µM alone) was 110 cpm/10^6 cells x 10^3 and the “mean reverse transcriptase values” (HIV [3]; AZT 0.04 µM alone) was 71 cpm/10^6 cells x 10^3. The “mean reverse transcriptase values” (HIV [3]; AZT 0.08 µM alone) was 31 cpm/10^6 cells x 10^3, the “mean reverse transcriptase values” (HIV [3]; AZT 0.16 µM alone) was 7 cpm/10^6 cells x 10^3 and the “mean RT values” (HIV [3]; Experiment 3, Day 13, AZT 0.02 µM alone) was 51 cpm/10^6 cells x 10^3. The “mean RT values” (HIV [3]; Experiment 3, Day 13, AZT 0.04 µM alone) was 10 cpm/10^6 cells x 10^3, the “mean RT values” (HIV [3]; Experiment 3, Day 13, AZT 0.08 µM alone) was 2 cpm/10^6 cells x 10^3 and the “mean RT values” (HIV [3]; Experiment 3, Day 13, AZT 0.16 µM alone) was 5 cpm/10^6 cells x 10^3. The “mean RT values” (HIV [3]; Experiment 4, Day 11, AZT 0.02 µM alone) was 8 cpm/10^6 cells x 10^3, the “mean RT values” (HIV [3]; Experiment 4, Day 11, AZT 0.04 µM alone) was 4 cpm/10^6 cells x 10^3 and the “mean RT values” (HIV [3]; Experiment 4, Day 11, AZT 0.08 µM alone) was 1 cpm/10^6 cells x 10^3. The “inhibition of viral replication” value (HIV [3]; experiment 1, all concentrations of AZT (3.2 µM and 5 twofold dilutions)) was “fully inhibitory”, the virus yield (HIV [4]) was 10^3 TCID50 /ml and the “HIV p24” value (HIV [5]; AZT 0.02 µM alone) was 100-200 ng protein/ml. The “HIV p24” value (HIV [5]; AZT 0.04 µM alone) was 25-30 ng protein/ml, the “HIV p24” value (HIV [5]; AZT 0.08 µM alone) was 11.2 ng protein/ml and the MIC (E. coli CN314; [7]) was 1 µg/mL. The activity against viruses [6] was “no appreciable activity”.

`O=C(N[C@H](CO)[C@H](O)c1ccc([N+](=O)[O-])cc1)C(Cl)Cl` [Chloramphenicol] gave an MIC (E. coli CN314; [7]) of 3.1 µg/mL.

With `CCC[C@@H]1C[C@@H](C(=O)N[C@@H]([C@H]2O[C@H](SC)[C@H](O)[C@@H](O)[C@H]2O)[C@H](C)Cl)N(C)C1` [Clindamycin] the MIC (E. coli CN314; [7]) was 100 µg/mL.

Molecule `CC[C@H]1OC(=O)[C@H](C)[C@@H](O[C@H]2C[C@@](C)(OC)[C@@H](O)[C@H](C)O2)[C@H](C)[C@@H](O[C@@H]2O[C@H](C)C[C@H](N(C)C)[C@H]2O)[C@](C)(O)C[C@@H](C)C(=O)[C@H](C)[C@@H](O)[C@]1(C)O` [Erthromycin] has an MIC (E. coli CN314; [7]) of 25 µg/mL.

With `CC(=O)O[C@H]1C[C@@]2(C)[C@@H](C[C@@H](O)[C@H]3[C@@]4(C)CC[C@@H](O)[C@@H](C)[C@@H]4CC[C@@]32C)/C1=C(\CCC=C(C)C)C(=O)O` [Fusidic acid] the MIC (E. coli CN314; [7]) was 1000 µg/mL.

`CO[C@H]1/C=C/O[C@@]2(C)Oc3c(C)c(O)c4c(O)c(c(/C=N/N5CCN(C)CC5)c(O)c4c3C2=O)NC(=O)/C(C)=C\C=C\[C@H](C)[C@H](O)[C@@H](C)[C@@H](O)[C@@H](C)[C@H](OC(C)=O)[C@@H]1C` [Rifampicin] gave an MIC (E. coli CN314; [7]) of 6.2 µg/mL.

Work on `Cc1cc(C)nc(NS(=O)(=O)c2ccc(N)cc2)n1` [Sulphadimidine] yielded an MIC (E. coli CN314; [7]) of 32 µg/mL.

For `NC[C@H]1O[C@H](O[C@H]2[C@H](O)[C@@H](O[C@H]3O[C@H](CO)[C@@H](O)[C@H](N)[C@H]3O)[C@H](N)C[C@@H]2N)[C@H](N)C[C@@H]1O` [Tobramycin], the MIC (E. coli CN314; [7]) was 0.4 µg/mL.

`COc1cc(Cc2cnc(N)nc2N)cc(OC)c1OC` [Trimethoprim, 2,4-diamino-5-(3',4',5'-trimethoxybenzyl) pyrimidine] gave an MIC (E. coli CN314; CN314) of 0.125 µg/mL.

With `COc1cc(C(=O)OCCCN2CCCN(CCCOC(=O)c3cc(OC)c(OC)c(OC)c3)CC2)cc(OC)c1OC` [dilazep] the antiviral effect ([2]; dilazep alone, 5 µM) was “Neither dipyridamole (10 µM) nor dilazep (5 µM) alone had any observed antiviral effect”.

For `OCCN(CCO)c1nc(N2CCCCC2)c2nc(N(CCO)CCO)nc(N3CCCCC3)c2n1` [dipyridamole], the antiviral effect ([2]; dipyridamole alone, 10 µM) was “Neither dipyridamole (10 µM) nor dilazep (5 µM) alone had any observed antiviral effect”.

— patent EP0594223B1, “Combination of therapeutic nucleosides and further therapeutic agents” (THE WELLCOME FOUNDATION LIMITED, priority 1985, dated 1987)
